Consider 1 substance from US5891847A, “Treatment of degenerative eye disorders” (Ramot University Authority for Applied Research and …, priority 1992, dated 1999).

The test concerns RCS rats. Briefly: Retinal degeneration in RCS rats: histological and morphometric analysis of the retina after daily intramuscular injections. The test is classed as in vivo, rat. From the text: Royal College Surgeons (RCS) rats were used. In RCS rats, a progressive loss of photoreceptor cells, caused by a recessively autosomal mutation of the RPE (La Vail, 1981), leads to severe visual impairment. Due to the failure of pigment epithelium phagocytosis, rod outer segment material accumulates between the retina and the RPE and results in retinal degeneration. […] The age of the animals in the experiment will hereinafter be referred to in relation with the postnatal day which will be indicated as pn, wherein n=the postnatal day. This disorder is similar to age-related macular degeneration in humans in that a metabolic insufficiency of the RPE cells results in a secondary progressive photoreceptor loss and vision impairment.
Enucleated eyes removed from the orbit eyes were fixated for plastic embedding in epoxy resin (Faktorovitch 1990; La Vail, 1981). The eyes were sectioned parallel to the vertical meridian.
The histological sections which were analyzed originated from the posterior part of the eye, from ora serata to ora serata including the optic nerve. Each histological preparation was analyzed by computerized image analysis. Twelve measurements (six from each side of the optic nerve) were taken at pre-determined points. At each point the number of rows of photoreceptors in the outer nuclear layer (ONL), as well as the thickness of inner plexiform layer (IPL) were determined.
The RCS rats of the experiment were divided into three groups of rats, each group including eight rats (8 eyes). The three groups were as follows:
1. RCS rats at the age of p23 receiving no treatment.
2. RCS rats at the age of p38 receiving no treatment.
3. RCS rats at the age of p23 receiving daily intramuscular injections to the hind leg containing α-MSH analog which was prepared as described above. Each rat received 0.01 micrograms of the α-MSH analog in 0.2 ml PBS in each injection.
The rats were sacrificed at the age of p38, the eyes were enucleated and then subjected to fixation and histological sections were prepared, as described above. The histological preparations of the eyes were examined morphometrically as described above and, in addition, the retinas were also examined by light microscopy.
The effect of α-MSH analog treatment on the retinas of the rats was quantitated by measuring the two following parameters at 11 or 14 points in the retina at various distances from the optic nerve:
An experiment similar to the one described above was also carried out in which the α-MSH analog treatment of Group 3 rats was replaced by α-MSH treatment. The result of this experiment, not shown were similar to the results of the above described experiment.

Where [1] appears, read: RCS rats, daily i.m. injections, compared to untreated rats.

As to Nle^4 D-Phe^7 α-MSH [α-MSH analog], the “number of layers of photoreceptors in the ONL (histological preparation, FIG. 3)” value (RCS rat at p38, daily intramuscular injections p23 to p38, 0.01 micrograms per injection, untreated 3-4 layers) is recorded as 7-8 layers. For the same substance, the “mean row number in treated higher than in non-treated” value (RCS rats at p38, ONL photoreceptor rows, treated vs non-treated) came out at 60%. For the same substance, where the note is “RCS rats at p38, daily i.m. injections, 9 out of 11 points of measurement, non-treated 3.5±0.4, p<0.05”, the “mean number of photoreceptor rows in ONL (FIG. 4)” value was determined as 5.6±0.6 rows. Moreover, the “thickness of the inner plexiform layer (IPL) (FIG. 5)” value (RCS rats at p38, central sector of the retina, 1.3 mm of each side of the optic nerve, untreated 23 microns, p<0.05) was found to be 50 microns. Also, under setting [1], the “effect on photoreceptor degeneration (in words)” value is reported as “rescued from degeneration” and the “effect on thickness of IPL / adjacent retinal layers (in words)” value is “significantly greater”. Moreover, the “effective dose per rat (daily intramuscular injection)” value (RCS rats, dose needed to obtain the same effect on photoreceptor degeneration and retinal layer thickness) is given as 0.01-0.5 microgram. Besides, the “number of rows of photoreceptors in the ONL, fold higher than non-treated” value (points 0.8 mm and 1.7 mm away from the optic nerve, Group 3 vs Group 2, p<0.001) was 2 ×.
